Source: patent publication US20240124545A1, “COMPOSITIONS AND METHODS RELATING TO THE TREATMENT OF DISEASES” (ILC THERAPEUTICS LIMITED, priority 2021, published 2024)
Values joined by “and” are separate entries in the source; they are usually repeats but may differ in a detail not shown here. Identical values can stand only once. Like-named read-outs stand apart in the source and are kept apart here.

Legend:
HeLa-CD4-βgal cells [1] = system: HeLa-CD4-βgal cells
HRSV Long strain = experiment: HRSV infectivity assay, immunostaining readout in HEp-2 cells; type: cell-based, human respiratory syncytial virus (HRSV) Long strain
HIV-1 LAI [2] = settings: for HIV Infectivity in HeLa CD4 βgal cells (β-gal units) - antiviral control / HIV Infectivity in HeLa CD4 βgal cells, percentage of vehicle - antiviral control: single data point
in vitro = settings: human
HIV-1 LAI [3] = experiment: microbe, parasite or virus in culture; settings: Human immunodeficiency virus 1, 48 h, read-out: IC50 (infectivity), Control HIV Inhibitors
HeLa-CD4-βgal cells [4] = experiment: XTT viability (cytotoxicity) assay, uninfected HeLa-CD4-βgal cells (Experiment 4); settings: for Viability of HeLa-CD4-βgal cells in the XTT assay (percentage values): 48 hours, single data point; for Viability of Uninfected HeLa-CD4-β gal Cells (A490): XTT, raw absorbance 490 nm

C[S+](C)[O-] [DMSO]
Viability of Uninfected HeLa-CD4-β gal Cells (% vehicle alone), controls (HeLa-CD4-βgal cells [1]): −0.5 ± 0.1 % vehicle alone

NC(=O)c1ncn([C@@H]2O[C@H](CO)[C@@H](O)[C@H]2O)n1 [Rib, ribavirin, reference compound]
HRSV infection blocked by antiviral control (HRSV Long strain; 50 μM): over 99% | HRSV Infectivity in HEp-2 cells (% vehicle) (HRSV Long strain; control antiviral 50 μM, 72 hours): −4.7 % vehicle | HRSV Infectivity in HEp-2 cells - Raw OD- Absorbance (490 nm) (HRSV Long strain; control antiviral 50 μM, duplicate A490 values): 0.195 and 0.176

CC(C)OC(=O)[C@H](C)N[P@](=O)(CO[C@H](C)Cn1cnc2c(N)ncnc21)Oc1ccccc1 [TAF, tenofovir alafenamide]
HIV Infectivity in HeLa CD4 βgal cells (β-gal units) - antiviral control (HIV-1 LAI [2]; 0.00005 μM): 1,043,762 RLU | HIV Infectivity in HeLa CD4 βgal cells, percentage of vehicle - antiviral control (HIV-1 LAI [2]; 0.00005 μM): 91.9 % vehicle | HIV Infectivity in HeLa CD4 βgal cells (β-gal units) - antiviral control (HIV-1 LAI [2]; 0.0003 μM): 1,038,889 RLU | HIV Infectivity in HeLa CD4 βgal cells, percentage of vehicle - antiviral control (HIV-1 LAI [2]; 0.0003 μM): 91.5 % vehicle | HIV Infectivity in HeLa CD4 βgal cells (β-gal units) - antiviral control (HIV-1 LAI [2]; 0.001 μM): 935,932 RLU | HIV Infectivity in HeLa CD4 βgal cells, percentage of vehicle - antiviral control (HIV-1 LAI [2]; 0.001 μM): 82.4 % vehicle | HIV Infectivity in HeLa CD4 βgal cells (β-gal units) - antiviral control (HIV-1 LAI [2]; 0.006 μM): 575,616 RLU | HIV Infectivity in HeLa CD4 βgal cells, percentage of vehicle - antiviral control (HIV-1 LAI [2]; 0.006 μM): 50.6 % vehicle | HIV Infectivity in HeLa CD4 βgal cells (β-gal units) - antiviral control (HIV-1 LAI [2]; 0.03 μM): 145,403 RLU | HIV Infectivity in HeLa CD4 βgal cells, percentage of vehicle - antiviral control (HIV-1 LAI [2]; 0.03 μM): 12.6 % vehicle | HIV Infectivity in HeLa CD4 βgal cells (β-gal units) - antiviral control (HIV-1 LAI [2]; 0.2 μM): 6,426 RLU | HIV Infectivity in HeLa CD4 βgal cells, percentage of vehicle - antiviral control (HIV-1 LAI [2]; 0.2 μM): 0.3 % vehicle | HIV infection blocked by control antivirals (HIV-1 LAI [2]; 0.5 μM): ~100% | HIV Infectivity in HeLa CD4 βgal cells (β-gal units) - antiviral control (HIV-1 LAI [2]; 0.8 μM): 2,064 RLU | HIV Infectivity in HeLa CD4 βgal cells, percentage of vehicle - antiviral control (HIV-1 LAI [2]; 0.8 μM): −0.1 % vehicle | HIV Infectivity in HeLa CD4 βgal cells (β-gal units) - antiviral control (HIV-1 LAI [2]; 4.0 μM): 1,893 RLU | HIV Infectivity in HeLa CD4 βgal cells, percentage of vehicle - antiviral control (HIV-1 LAI [2]; 4.0 μM): −0.1 % vehicle | HIV Infectivity in HeLa CD4 βgal cells (β-gal units) - antiviral control (HIV-1 LAI [2]; 20 μM): 1,475 RLU | HIV Infectivity in HeLa CD4 βgal cells, percentage of vehicle - antiviral control (HIV-1 LAI [2]; 20 μM): −0.1 % vehicle | HIV Infectivity in HeLa-CD4-βgal cells (% vehicle) (HIV-1 LAI [2]; control antiviral 0.5 μM, duplicate data points): 0.0 % vehicle | HIV Infectivity in HeLa CD4 βgal cells (β-galactosidase units) (HIV-1 LAI [2]; control antiviral 0.5 μM, individual values): 3,376 RLU and 3,509 RLU | CC50 at 48 h (in vitro): > 20000 nM | IC50 (HIV-1 LAI [3]): 8 nM | Viability of HeLa-CD4-βgal cells in the XTT assay (percentage values) (HeLa-CD4-βgal cells [4]; control antiviral 0.00005 μM): 111.5% | Viability of Uninfected HeLa-CD4-β gal Cells (A490) (HeLa-CD4-βgal cells [4]; control antiviral 0.00005 μM): 0.951 | Viability of HeLa-CD4-βgal cells in the XTT assay (percentage values) (HeLa-CD4-βgal cells [4]; control antiviral 0.0003 μM): 101.3% | Viability of Uninfected HeLa-CD4-β gal Cells (A490) (HeLa-CD4-βgal cells [4]; control antiviral 0.0003 μM): 0.872 | Viability of HeLa-CD4-βgal cells in the XTT assay (percentage values) (HeLa-CD4-βgal cells [4]; control antiviral 0.001 μM): 104.6% | Viability of Uninfected HeLa-CD4-β gal Cells (A490) (HeLa-CD4-βgal cells [4]; control antiviral 0.001 μM): 0.897 | Viability of HeLa-CD4-βgal cells in the XTT assay (percentage values) (HeLa-CD4-βgal cells [4]; control antiviral 0.006 μM): 109.1% | Viability of Uninfected HeLa-CD4-β gal Cells (A490) (HeLa-CD4-βgal cells [4]; control antiviral 0.006 μM): 0.932 | Viability of HeLa-CD4-βgal cells in the XTT assay (percentage values) (HeLa-CD4-βgal cells [4]; control antiviral 0.03 μM): 103.2% | Viability of Uninfected HeLa-CD4-β gal Cells (A490) (HeLa-CD4-βgal cells [4]; control antiviral 0.03 μM): 0.886 | Viability of HeLa-CD4-βgal cells in the XTT assay (percentage values) (HeLa-CD4-βgal cells [4]; control antiviral 0.2 μM): 104.5% | Viability of HeLa-CD4-βgal cells in the XTT assay (percentage values) (HeLa-CD4-βgal cells [4]; control antiviral 0.8 μM): 101.5% | Viability of Uninfected HeLa-CD4-β gal Cells (A490) (HeLa-CD4-βgal cells [4]; control antiviral 0.8 μM): 0.873 | Viability of HeLa-CD4-βgal cells in the XTT assay (percentage values) (HeLa-CD4-βgal cells [4]; control antiviral 4.0 μM): 104.1% | Viability of Uninfected HeLa-CD4-β gal Cells (A490) (HeLa-CD4-βgal cells [4]; control antiviral 4.0 μM): 0.894 | Viability of HeLa-CD4-βgal cells in the XTT assay (percentage values) (HeLa-CD4-βgal cells [4]; control antiviral 20 μM): 88.2% | Viability of Uninfected HeLa-CD4-β gal Cells (A490) (HeLa-CD4-βgal cells [4]; control antiviral 20 μM): 0.770
